Data from publication PMC10545747, “Development of cyclopeptide inhibitors of cGAS targeting protein-DNA interaction and phase separation” (Nature Communications, 2023).
Values joined by “and” are separate entries in the source; they are usually repeats but may differ in a detail not shown here. Identical values can stand only once. Square brackets hold non-standard residues; d marks the D form. Peptide text beside a SMILES is read from it.

Key:
[1] = test system: Trex1 knockdown L929 cells; assay: qPCR of Ifnb1 and Cxcl10 mRNA after Trex1 siRNA; type: cell-based, mouse
Procedure: The indicated cells were stimulated with either ISD (Sangon Biotech), HSV-1 (Provided by Dr. Zhengfan Jiang), HSV60mer (Sangon Biotech), SATE-cddA[70], 2’3’-cGAMP (Invivogen, Cat# tlrl-nacga23-1), ADU-S100 (MedChemExpress, Cat# HY-12885A) or Poly(I:C) (Invivogen, Cat# tlrl-pic) after XQ2 or XQ2B treatment. Total RNA was isolated from indicated cells that incubated with the drugs for indicated time or mice tissues by using NucleoZOL reagent (MACHEREY-NAGEL) according to the manufacturer’s instructions. The quantifications of mRNA levels were carried out by real-time PCR using a PerfectStart® Uni RT&qPCR Kit (TransGen Biotech) on the QuantStudio 5 qPCR machine (Applied Biosystems). Samples were carried out in triplicate and the target CT values were normalized to GAPDH CT values. Primers of qPCR used in this study can be found in Supplementary Table S2.
siRNA of TREX1 (siTREX1) was transfected into the indicated cells by Lipofectamine RNAiMAX (Invitrogen) according to the manufacturer’s instructions. Human siTREX1, mouse siTrex1 and negative control siRNAs were purchased from Sangon Biotech. The sequences of siRNAs oligonucleotides can be found in Supplementary Table S2.
Supplementary Fig. 9. XQ2B reduces interferon expression induced by Trex1 deficiency. […]
Trex1 knockdown L929 cells were treated with DMSO or XQ2B (20 μM) for 24 h, and the mRNA levels of Trex1 (c),
Ifnb1 and Cxcl10 (d) mRNA was measured by qPCR. (c) p < 0.0001, (d) p = 0.003 (Ifnb1); p = 0.0003 (Cxcl10). (e, f) […]
Source data are provided as a Source Data file.

[2] = target: T1, recombinant human cGAS enzyme (hcGAS-ΔN, residues 147–522) (Homo sapiens, UniProt Q8N884); assay: RNA-based fluorescent biosensor assay of cGAS activity (2',3'-cGAMP formation), in vitro screening; type: biochemical
T1 construct: N-terminally truncated human cGAS (hcGAS-ΔN, residues 147–522); 6xHis-SUMO (N, cleaved yes); made in house; host or cells: Escherichia coli BL21 (DE3)
T1 sequence (Q8N884 147-522, stated change not applied): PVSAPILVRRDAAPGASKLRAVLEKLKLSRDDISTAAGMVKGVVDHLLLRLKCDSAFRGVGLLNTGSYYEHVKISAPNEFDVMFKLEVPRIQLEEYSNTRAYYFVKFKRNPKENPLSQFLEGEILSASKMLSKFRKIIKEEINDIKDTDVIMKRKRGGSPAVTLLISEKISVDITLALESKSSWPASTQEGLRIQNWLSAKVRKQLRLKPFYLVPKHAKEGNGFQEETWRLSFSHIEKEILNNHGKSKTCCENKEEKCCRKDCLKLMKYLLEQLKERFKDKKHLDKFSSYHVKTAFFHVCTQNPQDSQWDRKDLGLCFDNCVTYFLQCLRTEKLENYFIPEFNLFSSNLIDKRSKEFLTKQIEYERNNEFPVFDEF
Summary of the method: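 In 40 mM Tris-HCl pH 7.5, 100 mM NaCl, 10 mM MgCl2, ISD (0.5 μM) started the reaction with hcGAS-ΔN (1.5 μM), ATP (1 mM) and GTP (1 mM). Incubation was 2 h at 37 °C, with compounds screened at 20 μM. 2',3'-cGAMP formed was quantified with an RNA-based fluorescent biosensor.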

THP1 cells = assay: Immunoblotting of phosphorylated IRF3/TBK1 and nuclear IRF3; type: cell-based, human
Procedure: Total cell lysates were prepared in RIPA lysis buffer (Beyotime Biotechnology) supplemented with 1 mM PMSF and 1× protease inhibitor cocktail (Yeasen), and nuclear protein was extracted by nuclear protein extraction kit (Solarbio) in accordance with the manufacturer’s instructions. The samples were separated by SDS-PAGE and transferred to the PVDF membrane (Millipore). The membranes were incubated with the indicated primary antibodies at 4 °C overnight and then incubated with an HRP-conjugated anti-rabbit IgG antibody (Cell Signaling, Cat# 7074, 1:5000) or anti-mouse IgG antibody (Cell Signaling, Cat# 7076, 1:5000) at room temperature for 1 h. The signal was visualized by using the NcmECL Ultra kit (New Cell & Molecular Biotech) and then was exposed by using MiniChemi (SageCreation).

Hela cells = assay: Immunofluorescence of IRF3 and p-IRF3 after HSV-1; type: cell-based, human
Procedure: Hela cells were treated as described for the indicated time and then fixed with 4% paraformaldehyde for 25 min, permeabilized with 0.25% Triton X-100 for 10 min, and blocked in 1% BSA for 1 h at 37 °C. Then, cells were incubated with indicated primary antibodies overnight at 4 °C, and followed by incubating with donkey anti-rabbit IgG Alexa Fluor 488-labeled secondary antibodies (Abcam, Cat# ab150073, 1:200) for 1 h at 37 °C. The nuclei were counterstained with DAPI (Sigma-Aldrich) before the images were acquired using a Nikon A1R+ confocal microscope.

[3] = test system: HSV-1-infected THP1 cells; assay: HSV-1 cytopathogenic effect, CCK-8 viability; type: cell-based, human; conditions: for cell viability, CCK-8, Fig. 5e: XQ2 10 μM
Procedure: Cell viability was measured by cell counting kit-8 (TargetMol) according to the manufacturer’s instructions.

Compound | Relative mRNA level Cxcl10 ([1]; Fig. S9d, Trex1 knockdown (siTrex1 +) L929 cells, XQ2B +, individual replicates, siTrex1 alone 5.56-7.04) | Relative mRNA level Ifnb1 ([1]; Fig. S9d, Trex1 knockdown (siTrex1 +) L929 cells, XQ2B +, individual replicates, siTrex1 alone 23.9-27.1) | expression of Ifnb1, Cxcl10 with Trex1-siRNA ([1]; L929, 20 μM, 24 h) | Remaining activity (%), Fig. 1a source data ([2]; 20 μM, replicate values) | remaining activity at 20 µM ([2]; 20 μM, replicate values, read-out: Remaining activity (%), Fig. 1a source data) | Inhibition % ([2]; peptides screened at 20 μM, Supplementary Table 1 / Fig. S5b, 20 µM) | inhibition at 20 µM ([2]; peptides screened at 20 μM, Supplementary Table 1 / Fig. S5b, read-out: Inhibition %) | nuclear translocation of IRF-3, fractionation immunoblot (THP1 cells; ISD or HSV-1, 10 μM) | phosphorylation of TBK-1 and IRF-3 (THP1 cells; ISD/dsDNA 6 h) | quantification of cells with nuclear IRF3, Fig. 2f (Hela cells; HSV-1 6 h, 10 μM) | quantification of cells with p-IRF3, Fig. 2g (Hela cells; HSV-1 6 h, 10 μM) | nuclear translocation and phosphorylation of IRF-3, immunofluorescence (Hela cells; HSV-1, 10 μM) | HSV-1 cytopathogenic effect in THP1 cells ([3]; 10 μM) | cell viability, CCK-8, Fig. 5e ([3]; Ctl) | cell viability, CCK-8, Fig. 5e ([3]; HSV-1 1×10^4 pfu) | cell viability, CCK-8, Fig. 5e ([3]; HSV-1 1×10^5 pfu) | cell viability, CCK-8, Fig. 5e ([3]; HSV-1 2×10^4 pfu) | cell viability, CCK-8, Fig. 5e ([3]; HSV-1 5×10^4 pfu)
CC(C)C[C@@H]1NC(=O)[C@H](CCCNC(=N)N)NC(=O)[C@H](C(C)C)NC(=O)[C@@H]2CCCN2C(=O)[C@@H](Cc2ccccc2)NC(=O)[C@H](CC(C)C)NC(=O)[C@H](CCCNC(=N)N)NC(=O)[C@H]([C@@H](C)O)NC(=O)[C@H](C)NC(=O)[C@@H](Cc2ccccc2)NC1=O [XQ2B] (cyclo([dF]ATRL[dF]PVRL)) | 1.176 and 1.276 and 1.118 | 15.103 and 18.4861 and 15.5105 | markedly inhibited the expression of these genes in mouse L929 and human THP1 cells with Trex1-siRNA | – | – | – | – | – | – | – | – | – | – | – | – | – | – | –
CC(C)C[C@@H]1NC(=O)[C@H](CCCNC(=N)N)NC(=O)[C@H](C(C)C)NC(=O)[C@@H]2CCCN2C(=O)[C@@H](Cc2ccccc2)NC(=O)[C@H](CC(C)C)NC(=O)[C@H](CCCNC(=N)N)NC(=O)[C@H](C(C)C)NC(=O)[C@H](C)NC(=O)[C@@H](Cc2ccccc2)NC1=O [XQ2, Cyclo (LfAVRLfPVR)] (cyclo(L[dF]AVRL[dF]PVR)) | – | – | – | 59.4781% and 59.6712% | 59.5% | ≥ 40% | 40% | substantially suppressed the nuclear translocation of IRF-3 induced by ISD and HSV-1 | markedly decreased phosphorylation of TBK-1 and IRF-3 induced by ISD | 5.1642 and 6.6102 and 7.0558 | 0.5674 and 0.8706 and 1.039 | significantly inhibited the nuclear translocation and phosphorylation of IRF-3 triggered by HSV-1 | HSV-1 produced marked cytopathogenic effect (CPE) in THP1 cells in the presence of XQ2 | 102.857 and 110.714 and 112.321 | 101.071 and 114.286 and 103.571 | 37.5 and 43.3929 and 38.0357 | 57.3214 and 52.5 and 50.7143 | 52.8571 and 47.6786 and 46.7857
